Measured values reported in patent US20150283145A1, “TREATMENT OF HYPERPROLIFERATIVE AND PRE-CANCEROUS SKIN DISEASES USING AN INHIBITOR OF CBP/CATENIN” (PRISM Pharma Co., Ltd., priority 2012, published 2015).

What was measured:
[1] = test system: psoriasis tissue model (SOR-300-FT); assay: Tissue structure (H&E histology) of psoriasis tissue model; assay type: cell-based, human
Excerpt: (§1) The psoriasis tissue model (SOR-300-FT; MatTek Corp., Ashland, Mass.) is a highly differentiated in vitro psoriatic tissue comprised of normal, human-derived keratinocytes and psoriatic fibroblasts which have been cultured to form a highly differentiated model of psoriatic tissue. Morphologically, the psoriatic tissue is of uniform thickness and is very similar to native psoriatic tissue in that it expresses increased levels of Ki67+ cells (hyperproliferation) and psoriasis-associated proteins such as psoriasin, elafin and human beta-defensin-2 (HBD-2) (Am. J. Pathol. 173:815-23, 2008). SOR-300-FT tissues (surface area=0.6 cm^2) were cultured on microporous membrane (pore size=0.4 μm) cell culture inserts. All psoriatic tissues were grown at the air liquid interface (ALI) in which the apical tissue layer is exposed to air. Use of the ALI induces the tissues to attain skin-like differentiation and allows direct topical application of test materials (similar to in vivo exposure).
(§2) Calcipotriol at 2.5, 0.25 and 0.025 μg/ml in medium was used as positive control. Ultrapure water was used as the vehicle control. The test article Compound C was applied to the basolateral (by additions to the culture medium) and apical (50 μl) side of the tissues. The effect of each three concentrations of the test article on tissue structure was examined using H&E stained histological slides. For gene analysis, RNA was isolated using standard RNA isolation protocol (MatTek Corporation). Isolated RNA was quantified and the integrity of the isolated RNA was checked. Quantitative RT-PCR was performed to determine expression levels of 5 psoriatic associated genes (elafin, HBD-2, psoriasin, p63, and Ki67).
(§3) SOR-300-FT™ tissues were transferred to 6-well plates containing 0.9 ml of pre-warmed assay medium and equilibrated to standard culture conditions (37° C., 5% CO2) for 1 hour. After the 1 hr equilibration, the tissues were re-fed with fresh medium as follow: 1) for the 24 hr time point, tissues were feed with 0.9 ml of medium and 2) for time points >24 hr, tissues were fed with 5 ml of culture medium by placing the cell culture inserts on top of the washers (Part # EPI-WSHR, MatTek Corporation). Next, 50 μl of the test article was applied topically to the psoriatic tissues (n=3) and the test article was added to the culture medium at concentrations of 100 μM, 30 μM, and 5 μM. At times 48 and 72 hours: a) the tissues were rinsed topically 3× with 300-400 μL of PBS, b) the inserts containing the tissues were held tightly with sterile forceps and the test article was rinsed gently by immersing the insert into PBS and decant medium from insert and c) fresh test article was re-applied to the tissue immediately after rinsing and decanting (50 μl, topically). Analysis was performed at t=48 hr (2× repeat applications) and t=96 hr (4× applications).
(§4) After t=48 (2× repeat exposure) and t=96 hr (4× exposure), N=3 tissues/treatment were used for RNA isolation for biomarker identification (gene expression levels). After the t=48 and t=96 hr, N=1 tissue/treatment was fixed in 10% formalin for histological analysis.
Microscopic observations of histology samples were performed and effect of treatment on tissue morphology such as apical surface disruption, structural changes, and abnormal tissue staining was assessed.

elafin gene expression = assay: qPCR elafin gene expression in psoriatic tissue model; assay type: cell-based, human
Excerpt: as §1, §2, §3, §4
(§5) RNA Isolation: RNA was isolated from the tissues following MatTek's standardized RNA isolation protocol. The concentration, integrity, and purity of RNA was assessed using Experion System (Bio-Rad).
(§6) qPCR: cDNA was generated using the RT2 First Strand Kit (Qiagen, cat#330401). Relative gene expression was measured using RT2 SYBR Green qPCR Mastermix (Qiagen, cat#330502) and Qiagen RT2 primers. Analysis was carried out using Bio-Rad CFX software.
(§7) qPCR was performed to quantify the relative gene expression levels of 5 psoriatic associated gene biomarkers: 1) human beta defensin 2 (HBD-2), 2) psoriasin, 3) elafin and 4) p63, and 5) Ki67.

[2] = test system: human beta defensin 2 (HBD-2) gene expression; assay: qPCR HBD-2 gene expression in psoriatic tissue model; assay type: cell-based
Excerpt: as §1, §2, §3, §4, §5, §6, §7

[3] = test system: psoriasin gene expression; assay: qPCR psoriasin gene expression in psoriatic tissue model; assay type: cell-based, human
Excerpt: as §1, §2, §3, §4, §5, §6, §7

p63 gene expression = assay: qPCR p63 gene expression in psoriatic tissue model; assay type: cell-based, human; conditions: for Downregulation of p63 gene: 2× or 4× repeat applications
Excerpt: as §1, §2, §3, §4, §5, §6, §7

Ki67 gene expression = assay: qPCR Ki67 gene expression in psoriatic tissue model; assay type: cell-based, human; conditions: for Downregulation of Ki67 gene: 2× or 4× repeat applications
Excerpt: as §1, §2
as §3, with “applications). […]” for “applications).”
as §5
qPCR: cDNA was generated using the RT2 First Strand Kit (Qiagen, cat#330401). Relative gene expression was measured using RT2 SYBR Green qPCR Mastermix (Qiagen, cat#330502) and Qiagen RT2 primers. […]
as §7

[4] = 0.025 ug/ml, 2× repeat applications
[5] = 0.025 ug/ml, 4× repeat applications
[6] = 2.5 μg/ml, 2× repeat applications
[7] = 2.5 μg/ml, 4× repeat applications
[8] = 0.25 ug/ml, 2× application, 48 hr

## C=C1/C(=C\C=C2/CCC[C@]3(C)[C@@H]([C@H](C)/C=C/[C@@H](O)C4CC4)CC[C@@H]23)C[C@@H](O)C[C@@H]1O [Calcipotriol, reference compound]
[1]; 2.5, 0.25 and 0.025 μg/ml, 2× or 4× repeat exposures
  Microscopic observation of tissue histology: minimal-to-no evidence of structural damage
Elafin gene expression; [4]
  Downregulation (≧2 fold) of elafin gene expression: not after 2× repeat applications
Elafin gene expression; [5]
  Downregulation of elafin gene expression: ≥ 2 fold
Elafin gene expression; [6]
  Downregulation of elafin gene expression: ≥ 2 fold
Elafin gene expression; [7]
  Reduction of elafin gene expression: significant reduction
[2]; [4]
  Downregulation (≧2 fold) of HBD-2 gene expression: not after 2× repeat applications
[2]; [5]
  Downregulation of HBD-2 gene expression: ≥ 2 fold
[2]; [8]
  Downregulation of HBD2 gene expression: ≥ 2 fold
[2]; [6]
  Downregulation of HBD-2 gene expression: ≥ 2 fold
[2]; [7]
  Reduction of HBD-2 gene expression: significant reduction
[3]; [4]
  Downregulation (≧2 fold) of psoriasin gene expression: not after 2× repeat applications
[3]; [5]
  Downregulation of psoriasin gene expression: ≥ 2 fold
[3]; [6]
  Downregulation of psoriasin gene expression: ≥ 2 fold
[3]; [7]
  Reduction of psoriasin gene expression: significant reduction
p63 gene expression; [8]
  Downregulation of p63 gene expression: ≥ 2 fold
p63 gene expression; [6]
  Downregulation of p63 gene expression: ≥ 2 fold
p63 gene expression; [7]
  Decrease of p63 gene expression: 1.7 fold
Ki67 gene expression; [6]
  Downregulation of Ki 67 gene expression: ≥ 2 fold
Ki67 gene expression; [7]
  Decrease of Ki67 gene expression: 1.6 fold

## C[C@H]1[C@H]2N(C(=O)CN(C)N2C(=O)NCc2ccccc2)[C@@H](Cc2ccc(O)cc2)C(=O)N1Cc1cccc2cccnc12 [Compound C, (6S,9S,9aS)—N-benzyl-6-(4-hydroxybenzyl)-2,9-dimethyl-4,7-dioxo-8-(quinolin-8-ylmethyl)octahydro-1H-pyrazino[2,1-c][1,2,4]triazine-1-carboxamide]
[1]; 5 μM, 2× repeat exposures
  Microscopic observation of tissue histology: minimal effect on tissue structure
[1]; 5 μM, 4× repeat exposures
  Basal cells and tissue regeneration (histology): the basal cells were intact and tissue regeneration was occurring
  Microscopic observation of tissue histology: the parabasal-apical layer of the tissue was sloughed off
[1]; 30 μM, 2× repeat exposures, 48 hr
  Microscopic observation of tissue histology: minor structural damage
[1]; 30 μM, 4× exposures, 96 hr
  Microscopic observation of tissue histology: the suprabasal and apical layer was sloughed off
[1]; 100 μM, 2× or 4× repeat exposures
  Microscopic observation of tissue histology: structural damage to the differentiated cell layer
Elafin gene expression; 5 μM, 4× applications, 96 hr
  Downregulation of elafin gene expression: ≥ 2 fold
Elafin gene expression; 30 μM, 4× applications, 96 hr
  Downregulation of elafin gene expression: ≥ 2 fold
Elafin gene expression; 30 μM, 48 hr (2× applications)
  Reduction in elafin gene expression level: 2.2 fold
Elafin gene expression; 100 μM, 4× applications, 96 hr
  Downregulation of elafin gene expression: ≥ 2 fold
[2]; 5 μM, 4× applications, 96 hr
  Downregulation of HBD-2 gene expression: ≥ 2 fold
[2]; 30 μM, 4× applications, 96 hr
  Downregulation of HBD-2 gene expression: ≥ 2 fold
[2]; 100 μM, 4× applications, 96 hr
  Downregulation of HBD-2 gene expression: ≥ 2 fold
[3]; 5 μM, 4× applications, 96 hr
  Downregulation of psoriasin gene expression: ≥ 2 fold
[3]; 30 μM, 4× applications, 96 hr
  Downregulation of psoriasin gene expression: ≥ 2 fold
[3]; 100 μM, 4× applications, 96 hr
  Downregulation of psoriasin gene expression: ≥ 2 fold
p63 gene expression; 5 μM
  Downregulation of p63 gene: did not show downregulation
p63 gene expression; 30 μM
  Downregulation of p63 gene: did not show downregulation
p63 gene expression; 100 μM, 2× repeat applications
  Downregulation of the p63 gene: 1.6 fold
Ki67 gene expression; 5 μM
  Downregulation of Ki67 gene: did not show downregulation
Ki67 gene expression; 30 μM
  Downregulation of Ki67 gene: did not show downregulation
Ki67 gene expression; 100 μM, 2× and 4× applications (FIGS. 4A-B)
  Downregulation of Ki 67 gene expression: No down regulation
